Reference: patent US20080139655A1, “SUSTAINED-RELEASE COMPOSITION AND METHOD OF USE THEREOF” (DrugTech Corporation, priority 2006, published 2008)

Tests used:
[1] = Dissolution testing of tablet formulations A and B (USP apparatus II with paddles, 50 rpm, 900 ml 0.1N HCl); type: physicochemical; conditions: USP apparatus II paddles 50 rpm, typical range for both formulations
Procedure: Tablet formulations A and B prepared as above are subjected to dissolution testing for both levodopa and carbidopa (USP apparatus II with paddles, 50 rpm, dissolution medium 900 ml 0.1N HCl) over a 12 hour period.

[2] = approximately; background statement; cited from earlier work

SMILES	% Dissolved ([1]; time 1 h)	% Dissolved ([1]; time 2 h)	% Dissolved ([1]; time 4 h)	% Dissolved ([1]; time 8 h)	% Dissolved ([1]; time 12 h)	half-life [2]
C[C@@](Cc1ccc(O)c(O)c1)(NN)C(=O)O [carbidopa]	15-25%	25-40%	40-70%	65-80%	80-95%	–
N[C@@H](Cc1ccc(O)c(O)c1)C(=O)O [levodopa, 3,4-dihydroxy-L-phenylalanine]	15-25%	25-40%	40-70%	65-80%	80-95%	45 to 90 min
